Data published in PubChem BioAssay AID328 (DTP/NCI, 2004).
“And” between values parts separate entries of the source, which are not always exact repeats. Identical values can stand only once. Inconclusive results and toxic doses are left out. The calls were made as follows: active = survival T/C of 150% or more; inactive = T/C below 125% in these data.

Tested on: BDF1 mice, P388 leukemia ip, median survival T/C
Assay: NCI In Vivo Anticancer Drug Screen. Data for tumor model P388 Leukemia (intraperitoneal) in B6D2F1 (BDF1) mice
Details: endpoint: median survival time, higher = longer survival
How it was run: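 In tumour-bearing mice, survival after compound treatment is set against the vehicle group and given as a quotient.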

[1] = dose: 100.0 mg/kg/injection, schedule: Q01DX009 (ip), vehicle: saline with Tween-80
[2] = dose: 100.0 mg/kg/injection, schedule: Q04DX003 (ip), vehicle: saline with Tween-80
[3] = dose: 200.0 mg/kg/injection, schedule: Q01DX009 (ip), vehicle: saline with Tween-80
[4] = dose: 200.0 mg/kg/injection, schedule: Q04DX003 (ip), vehicle: saline with Tween-80
[5] = dose: 400.0 mg/kg/injection, schedule: Q04DX003 (ip), vehicle: saline with Tween-80
[6] = dose: 50.0 mg/kg/injection, schedule: Q01DX009 (ip), vehicle: saline with Tween-80

Measured: T/C

COc1cccc2c1C(=O)c1c(OC)cccc1C2=O
inactive: dose: 25.0 mg/kg/injection, schedule: Q04DX003 (ip), vehicle: Klucel (hydroxypropylcellulose) (HPC) 98 % of control | dose: 50.0 mg/kg/injection, schedule: Q04DX003 (ip), vehicle: Klucel (hydroxypropylcellulose) (HPC) 97 % of control | dose: 100.0 mg/kg/injection, schedule: Q04DX003 (ip), vehicle: Klucel (hydroxypropylcellulose) (HPC) 103 % of control | dose: 200.0 mg/kg/injection, schedule: Q04DX003 (ip), vehicle: Klucel (hydroxypropylcellulose) (HPC) 98 % of control | dose: 400.0 mg/kg/injection, schedule: Q04DX003 (ip), vehicle: Klucel (hydroxypropylcellulose) (HPC) 97 % of control

CCOC(=O)/C=C(\C)C(C)=O
inactive: [1] 104 % of control | [2] 109 % of control | [3] 109 % of control | [4] 104 % of control | dose: 400.0 mg/kg/injection, schedule: Q01DX009 (ip), vehicle: saline with Tween-80 113 % of control | [5] 118 % of control

O=CCC(O)C(O)C(O)CO (configuration not stated)
inactive: dose: 94.0 mg/kg/injection, schedule: Q01DX010 (ip), vehicle: saline 100 % of control | dose: 188.0 mg/kg/injection, schedule: Q01DX010 (ip), vehicle: saline 100 % of control | dose: 375.0 mg/kg/injection, schedule: Q01DX010 (ip), vehicle: saline 113 % of control | dose: 750.0 mg/kg/injection, schedule: Q01DX010 (ip), vehicle: saline 100 % of control

COC(=O)c1c(OC)ccc2c1CC1C3Nc4ccccc4C3CCN1C2 (configuration not stated)
inactive: dose: 50.0 mg/kg/injection, schedule: Q04DX003 (ip), vehicle: saline sonified 100 % of control | dose: 100.0 mg/kg/injection, schedule: Q04DX003 (ip), vehicle: saline sonified 100 % of control | dose: 200.0 mg/kg/injection, schedule: Q04DX003 (ip), vehicle: saline sonified 100 % of control

Nc1nc(=O)n(CC(=O)c2ccco2)cc1F
inactive: dose: 50.0 mg/kg/injection, schedule: Q01DX009 (ip), vehicle: saline 109 % of control | dose: 100.0 mg/kg/injection, schedule: Q01DX009 (ip), vehicle: saline 95 % of control and 100 % of control | dose: 200.0 mg/kg/injection, schedule: Q01DX009 (ip), vehicle: saline 118 % of control

O=[N+]([O-])c1ccc(/C=[N+](\[O-])CCO)o1
inactive: [6] 111 % of control | [1] 113 % of control | [3] 111 % of control

COC(OC)c1[nH]c(=S)[nH]c(=O)c1Cc1ccccc1
inactive: [2] 104 % of control | [4] 112 % of control | [5] 112 % of control

CCC1CCCCN1C (configuration not stated)
inactive: dose: 12.5 mg/kg/injection, schedule: Q04DX003 (ip), vehicle: saline 100 % of control | dose: 25.0 mg/kg/injection, schedule: Q04DX003 (ip), vehicle: saline 90 % of control | dose: 50.0 mg/kg/injection, schedule: Q04DX003 (ip), vehicle: saline 90 % of control

CC(=O)N(C)C=C1C(=O)N(C)C(=O)N(C)C1=O
inactive: [6] 102 % of control | [1] 111 % of control | [3] 92 % of control

CCN(CC)c1oc2ccc3ccccc3c2c(=O)c1Cl
inactive: [6] 97 % of control | [1] 94 % of control | [3] 92 % of control

O/N=C\c1ccccc1
inactive: dose: 25.0 mg/kg/injection, schedule: Q01DX009 (ip), vehicle: Klucel (hydroxypropylcellulose) (HPC) 108 % of control | dose: 50.0 mg/kg/injection, schedule: Q01DX009 (ip), vehicle: Klucel (hydroxypropylcellulose) (HPC) 95 % of control | dose: 75.0 mg/kg/injection, schedule: Q04DX003 (ip), vehicle: saline with Tween-80 110 % of control | dose: 100.0 mg/kg/injection, schedule: Q01DX009 (ip), vehicle: Klucel (hydroxypropylcellulose) (HPC) 91 % of control | dose: 150.0 mg/kg/injection, schedule: Q04DX003 (ip), vehicle: saline with Tween-80 105 % of control

CCCCCCCCC(=O)c1c(OC)oc(/C=N/O)cc1=O
inactive: dose: 1.56 mg/kg/injection, schedule: Q01DX009 (ip), vehicle: Klucel (hydroxypropylcellulose) (HPC) 94 % of control | dose: 3.13 mg/kg/injection, schedule: Q01DX009 (ip), vehicle: Klucel (hydroxypropylcellulose) (HPC) 107 % of control | dose: 6.25 mg/kg/injection, schedule: Q01DX009 (ip), vehicle: Klucel (hydroxypropylcellulose) (HPC) 97 % of control

OCC(O)C(O)C(O)C(O)C=Nc1ccc(/C=C/c2ccnc3ccccc23)cc1 (configuration not stated)
inactive: [6] 109 % of control | [1] 105 % of control | [3] 112 % of control
